This note sets out measurements from patent US20150011751A1, “NOVEL TRIAZINE DERIVATIVE” (CARNA BIOSCIENCES, INC., priority 2012, published 2015).

The structures appear in SMILES notation.

Test [1] relates to intracellular BTK (pY223) in Ramos cells. As to the kind of experiment: cells. To be noted: Homo sapiens, read-out: BTK phosphorylation inhibitory activity.
Method: The supernatant was recovered by a centrifugal operation (at 15,000 rpm for 15 minutes) and the amount of protein was quantitatively determined. The supernatant was mixed with SDS-sample buffer and the mixture was reacted at 95° C. for 5 minutes thereby modifying the protein to obtain a sample solution. […] Thereafter, the protein in the gel was transferred to a PVDF membrane, using an iBlot gel transfer system (Life Technologies Corporation).
The unreacted secondary antibody was washed with TBST buffer and reacted according to the attached protocol, using ECL Prime Western Blotting Detection System (GE Healthcare Ltd.), and then each band was detected by chemiluminescence using a CCD camera (ATTO, Light-CaptureII). The detected band was digitized by densitometry (ATTO CS Analyzer ver.3.0) and an inhibition ratio was calculated from the intensity of a band in each group on the assumption that luminescence of a band of phosphorylated BTK of the compound no-addition and IgM stimulated group is 100%, whereas, luminescence of a band of phosphorylated BTK of the compound no-addition and IgM non-stimulated group is 0%. Each band of phosphorylated BTK was corrected by the total BTK.
Thereafter, IgM (Invitrogen, H15100) diluted with the medium was added so that the final concentration becomes 10 μg/mL, followed by incubation at 37° C. for 10 minutes.
The intracellular BTK autophosphorylation inhibiting activity was indicated with the mark “***” when 70% or more, with the mark “**” when 50% or more and less than 70%, and with the mark “*” when 30% or more and less than 50%.
Another test addresses Dephosphorylated BTK (Homo sapiens, UniProt Q06187). The experiment in a line: Test of activity inhibition against dephosphorylated BTK (mobility shift assay).

Chain of Dephosphorylated BTK (Q06187 whole entry): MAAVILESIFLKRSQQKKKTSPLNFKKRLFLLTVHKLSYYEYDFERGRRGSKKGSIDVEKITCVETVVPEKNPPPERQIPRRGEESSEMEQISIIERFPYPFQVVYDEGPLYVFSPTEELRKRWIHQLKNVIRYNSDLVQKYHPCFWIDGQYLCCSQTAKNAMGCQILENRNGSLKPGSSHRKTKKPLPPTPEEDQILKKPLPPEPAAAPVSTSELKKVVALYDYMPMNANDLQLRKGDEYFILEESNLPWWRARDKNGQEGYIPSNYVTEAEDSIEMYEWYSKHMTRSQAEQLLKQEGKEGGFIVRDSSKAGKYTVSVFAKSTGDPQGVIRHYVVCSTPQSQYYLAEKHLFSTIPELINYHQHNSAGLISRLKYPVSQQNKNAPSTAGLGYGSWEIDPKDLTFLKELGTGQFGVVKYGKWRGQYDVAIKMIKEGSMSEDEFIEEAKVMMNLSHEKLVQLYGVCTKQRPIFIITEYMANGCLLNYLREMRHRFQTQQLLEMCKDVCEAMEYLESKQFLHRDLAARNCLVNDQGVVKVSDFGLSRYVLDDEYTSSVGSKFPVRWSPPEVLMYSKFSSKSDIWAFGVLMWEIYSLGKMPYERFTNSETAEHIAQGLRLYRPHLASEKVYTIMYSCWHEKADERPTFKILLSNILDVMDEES

`Cn1ccc(Nc2nc(N)nc(-c3cccc(N4CCc5cc(C6CC6)cc(F)c5C4=O)c3CO)n2)c1` [Example 213, 2-(3-{4-Amino-6-[(1-meth-yl-1H-pyrrol-3-yl)amino]-1,3,5-triazin-2-yl}-2-(hydroxymethyl)phenyl)-6-cyclopropyl-8-fluoro-3,4-dihydro-isoquinolin-1(2H)-one]: the inhibition at 0.3 µM in test [1] is over 70%. Besides, the IC50 on Dephosphorylated BTK amounted to 1.1 nM. Regarding `Cc1c(NC(=O)c2ccc(C(C)(C)C)cc2)cccc1-c1nc(N)nc(Nc2ccc(C(=O)N3CCOCC3CO)cc2)n1` (stereo not shown) [Example 31, N-{3-[4-Amino-6-({4-[3-(hydroxymethyl)morpho-line-4-carbonyl]phe-nyl}amino)-1,3,5-tria-zin-2-yl]-2-methylphe-nyl}-4-(tert-butyl) benzamide], the inhibition at 0.3 µM in test [1] is over 70%. In addition, the IC50 on Dephosphorylated BTK amounted to 1.5 nM. On the same counts, the results for `CN(C)CCCOc1ccc(Nc2nc(N)nc(-c3cccc(NC(=O)c4ccc(C(C)(C)C)cc4)c3CO)n2)cc1` [Example 70, N-{3-[4-Amino-6-({4-[3-(dimethylamino)prop-oxy]phenyl}amino)-1,3,5-triazin-2-yl]-2-(hydroxy-methyl)phenyl}-4-(tert-butyl)benzamide] are over 70% and 1 nM. As to `Cc1c(-c2nc(N)nc(Nc3ccc(C(=O)N4CCOCC4)cc3)n2)cccc1N1Cc2cc(C(C)(C)C)ccc2C1=O` [Example 33, 2-[3-(4-Amino-6-{[4-(morpholine-4-carbonyl)phenyl]amino}-1,3,5-triazin-2-yl)-2-methylphenyl]-5-(tert-butyl)isoindolin-1-one], the inhibition at 0.3 µM in test [1] was over 70%. In the case of `Nc1nc(Nc2cnn(CC3CC3)c2)nc(-c2cccc(N3CCc4cc(C5CC5)cc(F)c4C3=O)c2CO)n1` [Example 214, 2-[3-(4-Amino-6-{[1-(cyclo-propylmethyl)-1H-pyrazol-4-yl]amino}-1,3,5-triazin-2-yl)-2-(hydroxymethyl)phenyl]-6-cyclopropyl-8-fluoro-3,4-dihydroisoquinolin-1(2H)-one], the inhibition at 0.3 µM in test [1] is over 70%. In addition, the IC50 at Dephosphorylated BTK came out at 0.3 nM. Take `Cc1c(NC(=O)c2ccc(C(C)(C)C)cc2)cccc1-c1nc(N)nc(Nc2ccc(C(=O)N3CCOC(CN)C3)cc2)n1` (stereo not shown) [Example 32, N-{3-[4-Amino-6-({4-[2-(aminomethyl)morpho-line-4-carbonyl]phenyl}amino)-1,3,5-triazin-2-yl]-2-methylphenyl}-4-(tert-butyl)benz-amide]: the inhibition at 0.3 µM in test [1] was over 70%. Moreover, the IC50 at Dephosphorylated BTK is 0.8 nM. `Cn1cc(Nc2nc(N)nc(-c3cccc(N4CCc5cc(C6CC6)cc(F)c5C4=O)c3CO)n2)cn1` [Example 180, 2-(3-{4-Amino-6-[(1-methyl-1H-pyrazol-4-yl)amino]-1,3,5-triazin-2-yl}-2-(hydroxymeth-yl)phenyl)-6-cyclopro-pyl-8-fluoro-3,4-dihy-droisoquinolin-1(2H)-one]: the inhibition at 0.3 µM in test [1] was over 70%. Also, the IC50 on Dephosphorylated BTK worked out at 0.7 nM. For the molecule `CC(=O)Nc1ccc(Nc2nc(N)nc(-c3cccc(NC(=O)c4ccc(C(C)(C)C)cc4)c3CO)n2)cc1` [Example 119, N-(3-{4-[(4-Acetamido-phenyl)amino]-6-amino-1,3,5-triazin-2-yl}-2-(hydroxymethyl)phe-nyl)-4-(tert-butyl)benz-amide], the IC50 at Dephosphorylated BTK is 0.8 nM.

With `Nc1nc(Nc2ccsc2)nc(-c2cccc(N3CCc4cc(C5CC5)cc(F)c4C3=O)c2CO)n1` [Example 228, 2-{3-[4-Amino-6-(thio-phen-3-ylamino)-1,3,5-triazin-2-yl]-2-(hy-droxymethyl)phenyl}-6-cyclopropyl-8-fluoro-3,4-dihydroisoquinolin-1(2H)-one], the IC50 on Dephosphorylated BTK came to 2.4 nM. Consider `CC(C)(C)c1ccc(C(=O)Nc2cccc(-c3nc(N)nc(Nc4ccc5c(c4)OCC(=O)N5)n3)c2CO)cc1` [Example 154, N-(3-{4-Amino-6-[(3-oxo-3,4-dihydro-2H-ben-zo[b][1,4]oxazin-7-yl)amino]-1,3,5-triazin-2-yl}-2-(hydroxymeth-yl)benzyl)-4-(tert-bu-tyl)benzamide], for which the concentration for half-maximal inhibition (IC50) at Dephosphorylated BTK is 0.9 nM.

In the case of `COCCN(CCOC)Cc1ccc(Nc2nc(N)nc(-c3cccc(NC(=O)c4ccc(C(C)(C)C)cc4)c3CO)n2)cc1` [Example 105, N-(3-{4-Amino-6-[(4-{[bis (2-methoxyethyl)ami-no]methyl}phenyl)ami-no)-1,3,5-triazin-2-yl]-2-(hydroxymethyl)phenyl}-4-(tert-butyl) benzamide], the IC50 at Dephosphorylated BTK was determined as 0.9 nM. `COCCOc1ccc(Nc2nc(N)nc(-c3cccc(N4CCc5cc(C6CC6)cc(F)c5C4=O)c3CO)n2)cc1OCCOC` [Example 48, 2-[3-(4-Amino-6-{[3,4-bis(2-methoxyethoxy)phenyl]amino}-1,3,5-tri-azin-2-yl}-2-(hydroxy-methyl)phenyl]-6-cyclo-propyl-8-fluoro-3,4-dihydroisoquinolin-1(2H)-one]: at Dephosphorylated BTK, the IC50 worked out at 3.4 nM.

For the molecule `CC(C)(C)c1ccc(C(=O)Nc2cccc(-c3nc(N)nc(Nc4ccc(OCCCO)cc4)n3)c2CO)cc1` [Example 200, N-[3-(4-Amino-6-{[4-(3-hydroxypropoxy)phe-nyl]amino}-1,3,5-triazin-2-yl)-2-(hydroxymeth-yl)phenyl]-4-(tert-butyl)benzamide], on Dephosphorylated BTK, the IC50 was 0.8 nM. `Nc1nc(Nc2cn[nH]c2)nc(-c2cccc(N3CCc4cc(C5CC5)cc(F)c4C3=O)c2CO)n1` [Example 195, 2-(3-{4-[(1H-Pyrazol-4-yl)amino]-6-amino-1,3,5-triazin-2-yl}-2-(hydroxymethyl)phenyl)-6-cyclopropyl-8-fluoro-3,4-dihydro-isoquinolin-1(2H)-one]: the IC50 at Dephosphorylated BTK was determined as 0.8 nM. On to `Nc1nc(Nc2ccc(N3CCOCC3)cc2)nc(-c2cccc(NC(=O)c3ccc(C4CC4)cc3F)c2CO)n1` [Example 145, N-(3-{4-Amino-6-[(4-morpholinophenyl)amino]-1,3,5-triazin-2-yl}-2-(hydroxymethyl)phe-nyl)-4-cyclopropyl-2-fluorobenzamide], for which the IC50 at Dephosphorylated BTK was determined as 1.8 nM.

In the case of `Nc1nc(Nc2ccc(OC3CCOCC3)c(F)c2)nc(-c2cccc(N3CCc4cc(C5CC5)cc(F)c4C3=O)c2CO)n1` [Example 194, 2-{3-[4-Amino-6-({3-fluoro-4-[(tetrahydro-2H-pyran-4-yl)oxy]phe-nyl}amino)-1,3,5-tria-zin-2-yl]-2-(hydroxy-methyl)phenyl}-6-cyclo-propyl-8-fluoro-3,4-dihydroisoquinolin-1(2H)-one], on Dephosphorylated BTK, the IC50 was 0.9 nM. For the molecule `CC(C)(C)c1ccc(C(=O)Nc2cccc(-c3nc(N)nc(Nc4ccc(S(=O)(=O)N5CCOCC5)cc4)n3)c2CO)cc1` [Example 204, N-[3-(4-Amino-6-{[4-(morpholinosulfonyl)phe-nyl]amino}-1,3,5-tri-azin-2-yl)-2-(hydroxy-methyl)phenyl]-4-(tert-butyl)benzamide], the IC50 at Dephosphorylated BTK is 1.3 nM.

With `Cc1c(NC(=O)c2ccc(C(C)(C)C)cc2)cccc1-c1nc(N)nc(Nc2ccc(CN3CCOCC3)cc2)n1` [Example 38, N-[3-(4-Amino-6-{[4-(mor-pholinomethyl)phe-nyl]amino}-1,3,5-triazin-2-yl)-2-methylphe-nyl]-4-(tert-butyl)benz-amide], the IC50 on Dephosphorylated BTK was found to be 1.2 nM. As for `CC(C)(C)c1ccc(C(=O)Nc2cccc(-c3nc(N)nc(Nc4ccc(N5CCNC5=O)cc4)n3)c2CO)cc1` [Example 167, N-[3-(4-Amino-6-{[4-(2-oxoimidazolidin-1-yl)phenyl]amino}-1,3,5-triazin-2-yl)-2-(hy-droxymethyl)phenyl]-4-(tert-butyl)benzamide], on Dephosphorylated BTK, the 50% inhibitory concentration (IC50) is 1.6 nM.

As a reminder, the IC50 is the concentration at which inhibition is half-maximal.
